In patent US20090074911A1, “Indicia-Bearing Package For Delivery Systems” (CADBURY ADAMS USA LLC, priority 2005, published 2009):

Assay: Discoloration (degradation) of sucralose during encapsulation
Assay type: physicochemical
Description: As one example of a hydrophilic coating, sucralose was mixed with powdered polyvinyl acetate and 5% fat and extruded at 110° C. […] In an alternative encapsulation, sucralose was mixed with powdered polyvinyl acetate, 2% polyvinylpyrollidone and 1% magnesium stearate and pressed into tablets at 25° C. The tablets were then heated to 80° C., which softened the polymer and fused the polyvinylacetate with the sucralose. […] Thereafter, the tablets were cooled, ground and sized and analyzed. […] As another example, a polymer/sweetener matrix was prepared as described above in this paragraph. A solution of gum arabic was made and coated on the polymer/sweetener matrix particles using the method described in U.S. Pat. No. 3,196,827, the relevant portions of which are incorporated herein by reference. Coating levels were 20, 30, 40, and 50% for different samples. Chewing gums prepared with the coated polymer/sweetener matrix particles were chewed by a panel with bolus collection at 5, 10, 15, 20 minutes. Residual sucralose was analyzed in each chewed bolus.

OC[C@H]1O[C@H](O[C@]2(CCl)O[C@H](CCl)[C@@H](O)[C@@H]2O)[C@H](O)[C@@H](O)[C@H]1Cl [sucralose]
discoloration indicating degradation of the sucralose (mixed with powdered polyvinyl acetate and 5% fat, extruded at 110° C.): Extensive discoloration
discoloration of the sucralose (mixed with powdered polyvinyl acetate, 2% polyvinylpyrollidone, 1% magnesium stearate, pressed into tablets at 25° C., heated to 80° C.): No discoloration
discoloration of the sucralose (same tablets after being cooled, ground, sized and analyzed): no discoloration
